# Measured values from EP3959200B1, “NEW TRIAZOLE AND TRIAZOLOTHIADIAZINE DERIVATIVES EXERTING CYTOTOXIC AND APOPTOTIC EFFECTS ON A549 CELLS THROUGH AKT INHIBITION” (Anadolu Universitesi, priority 2020, dated 2022).
# Key:
# [1] = tested on: NIH/3T3 mouse embryonic fibroblast cells; assay: MTT cytotoxicity assay; format: cell-based; conditions: for IC50: Mus musculus, NIH3T3, 24 hours, read-out: IC50 values NIH/3T3 cell line
# Protocol: (§1) In order to be used from this stock, the concentrations ranging from 0.12 to 500 µg/mL (with the highest DMSO ratio of 0.1%) were prepared.
# NIH/3T3 mouse embryonic fibroblast cells (ATCC® CRL-1658™) were grown in DMEM medium supplemented with 10% fetal bovine serum, 1% penicillin/streptomycin, in an incubator with carbon dioxide, in a culture medium at 37°C at 95% relative humidity.
# (§2) MTT protocol was applied to determine cell viability. […] At the end of the incubation period, 20 µL of MTT dye (5 mg/mL) was added into each well, and the cells were incubated for an additional 4 hours at 37°C. After this process, MTT dye was removed from the cells, 200 µL of DMSO was added to each well and left to incubate for 10 minutes. Color change was detected at 540 nm in the ELx808-IU Bio-Tek plate reader. Inhibition% values were determined for each concentration of compounds. Inhibitory concentration 50 (IC50) values of the compounds were calculated by drawing a dose-response curve with their concentrations against these values. All experiments were carried out in triplicate. The results were given as mean±standard deviation. Inhibition% = 100−[(ODtest compound−ODblank/ODsolvent control−ODblank)×100] [formula]
# [2] = tested on: A549 human lung adenocarcinoma cells; assay: MTT cytotoxicity assay; format: cell-based; conditions: for IC50: Homo sapiens, A549, MTT, 24 hours, read-out: IC50 values A549 cell line; for cytotoxic effects on A549 cell line: in the tested concentration range (0.12-500 µg/mL), result in words; for SI values: SI= IC50 for NIH/3T3 cell line / IC50 for A549 cell line
# Protocol: as §1
# A549 human lung adenocarcinoma cells (ATCC® CCL-185™) were grown in RPMI 1640 medium supplemented with 10% fetal bovine serum, 1% penicillin/streptomycin, in an incubator with carbon dioxide, in a culture medium at 37°C at 95% relative humidity.
# as §2
# Selective index (SI) values were determined using the following formula. SI […] IC50 for NIH/3T3 cell line/IC50 for A549 cell line [formula]
# A549 cells = assay: FITC Annexin V/PI apoptosis detection by flow cytometry; format: cell-based, human; conditions: for Early apoptotic cells % / Late apoptotic cells % / Necrosis % / Viable cells% / apoptotic activity: at IC50 concentrations; for apoptosis induction: flow cytometry, result in words; for apoptotic activity: early plus late apoptotic cells
# Protocol: The cells incubated with the compounds were centrifuged at 400 × g for 5 minutes in labeled tubes and washed twice with 1xPBS. Then, the cells were suspended in 1×Annexin-V binding solution at 1×10^6 cells/mL and 100 µL of this cell solution was taken and transferred to tubes. The cells were treated with 5 µL Annexin V FITC and 5 µL of propidium iodide (PI) dyes. Then, the cells were kept at room temperature in the dark for 15 minutes to allow the dye to bind. 400 µL of 1×Annexin-V binding cell solution was transferred to flow cytometry tubes and the amount of early and late apoptotic cells was determined relative to the positive control using the BD FACSAria flow cytometer FACSDiva version 6.1.1 software.
# Akt = Akt activity assay (Akt colorimetric in cell ELISA); format: cell-based, human; conditions: for Inhibition % / IC50 value (Akt inhibitory effects): 24 hours; for Akt inhibitory effects: result in words
# Protocol: Briefly, the media was removed from the wells and 100 µL of 4% formaldehyde was added. The plate was incubated for 15 minutes in a fume hood. Formaldehyde was removed and the plate was washed twice with 1X […] solution (TBS) to 100 µL/well. 1X TBS was removed and 100 µL of 1X permeabilization buffer was added to each well and left at room temperature for 15 minutes. After removing the 1X permeabilization buffer, the wells were washed once with 100 µL of 1X TBS. 1X TBS was removed and 100 µL of the quenching solution was added to the wells and left at room temperature for 20 minutes. Then, this solution was removed. The plate was washed once with 1X TBS, 100 µL of blocking buffer was added to the wells and left at room temperature for 30 minutes. At the end of this period, the blocking buffer was removed and 50 µL of primary antibody was added to the wells. The plate was closed with a sealer and incubated overnight at 4°C. The primary antibody was removed and plate wells were washed three times with 100 µL of wash buffer. After removing the wash buffer, 100 µL of diluted horseradish peroxidase (HRP) conjugate was added to the wells. It was incubated for 30 minutes at room temperature. After removing this conjugate, 100 µL of 3,3',5,5'-tetramethylbenzidine (TMB) stop solution was added and absorbance was measured at 450 nm for 30 minutes. The experiment was carried out in triplicate. The values of the blank wells were subtracted from the values of the untreated control and treated cells. The Akt activity% was determined as the relative absorbance of treated versus untreated control cells.
structure (smiles),measurement,setting,value
"FC(F)(F)c1ccc(C2=Nn3c(CCc4cccnc4)nnc3SC2)cc1 [Compound 2g, 3-(2-(Pyridine-3-yl)ethyl)-6-(4-(trifluoromethyl)phenyl)-7H-[1,2,4]triazolo[3,4-b][1,3,4]thiadiazine]",IC50,[1],> 500 mg/L
same,IC50,[2],> 500 mg/L
same,cytotoxic effects on A549 cell line,[2],did not show cytotoxic effects
"Clc1ccc(C2=Nn3c(CCc4cccnc4)nnc3SC2)cc1 [Compound 2d, 6-(4-chlorophenyl)-3-(2-(pyridine-3-yl)ethyl)-7H-[1,2,4]triazolo[3,4-b][1,3,4]thiadiazine]",Early apoptotic cells %,A549 cells,2.4%
same,Late apoptotic cells %,A549 cells,3.8%
same,Necrosis %,A549 cells,1.3%
same,Viable cells%,A549 cells,92.5%
same,apoptosis induction,A549 cells,induce apoptosis
same,IC50,[1],> 500 mg/L
same,Inhibition %,Akt; 3.94 µg/mL,80.33±19.71%
same,Inhibition %,Akt; 7.88 µg/mL,99.07±1.86%
same,Inhibition %,Akt; 15.75 µg/mL,90.41±7.17%
same,IC50 value (Akt inhibitory effects),Akt,0.80 ± 0.10 mg/L
same,IC50,[2],15.8 ± 0.35 mg/L
same,SI values,[2],>31.75
"Cc1ccc(C2=Nn3c(CCc4cccnc4)nnc3SC2)cc1 [Compound 2h, 3-(2-(Pyridine-3-yl)ethyl)-6-(p-tolyl)-7H-[1,2,4]triazolo[3,4-b][1,3,4]thiadiazine]",IC50,[1],> 500 mg/L
same,IC50,[2],41.3 ± 0.58 mg/L
same,SI values,[2],>12.10
"COc1ccc2nc(NC(=O)CSc3nnc(CCc4cccnc4)n3N)sc2c1 [Compound 3g, 2-((4-Amino-5-(2-(pyridine-3-yl)ethyl)-4H-1,2,4-triazole-3-yl)thio)-N-(6-methoxybenzothiazole-2-yl)acetamide]",Early apoptotic cells %,A549 cells,0.9%
same,Late apoptotic cells %,A549 cells,5.5%
same,Necrosis %,A549 cells,9.1%
same,Viable cells%,A549 cells,84.5%
same,apoptosis induction,A549 cells,induce apoptosis
same,IC50,[1],> 500 mg/L
same,Inhibition %,Akt; 1.95 µg/mL,26.42±4.59%
same,Inhibition %,Akt; 3.90 µg/mL,88.87±5.31%
same,IC50 value (Akt inhibitory effects),Akt,2.60 ± 0.10 mg/L
same,IC50,[2],0.48 ± 0.03 mg/L
"Cc1ccc2nc(NC(=O)CSc3nnc(CCc4cccnc4)n3N)sc2c1 [Compound 3f, 2-((4-Amino-5-(2-(pyridine-3-yl)ethyl)-4H-1,2,4-triazole-3-yl)thio)-N-(6-methylbenzothiazole-2-yl)acetamide]",Early apoptotic cells %,A549 cells,1.9%
same,Late apoptotic cells %,A549 cells,7.7%
same,Necrosis %,A549 cells,5.8%
same,Viable cells%,A549 cells,84.6%
same,apoptotic activity,A549 cells,9.6%
same,apoptosis induction,A549 cells,induce apoptosis
same,IC50,[1],> 500 mg/L
same,Inhibition %,Akt; 3.25 µg/mL,37.59±9.46%
same,Inhibition %,Akt; 6.50 µg/mL,40.29±11.27%
same,Akt inhibitory effects,Akt,did not show significant Akt inhibitory effects
same,IC50,[2],6.5 ± 0.5 mg/L
same,SI values,[2],>76.92
"Fc1ccc(C2=Nn3c(CCc4cccnc4)nnc3SC2)cc1 [Compound 2c, 6-(4-fluorophenyl)-3-(2-(pyridine-3-yl)ethyl)-7H-[1,2,4]triazolo[3,4-b][1,3,4]thiadiazine]",Early apoptotic cells %,A549 cells,1.8%
same,Late apoptotic cells %,A549 cells,6.0%
same,Necrosis %,A549 cells,4.6%
same,Viable cells%,A549 cells,87.6%
same,apoptotic activity,A549 cells,7.8%
same,apoptosis induction,A549 cells,induce apoptosis
same,IC50,[1],> 500 mg/L
same,Inhibition %,Akt; 2.95 µg/mL,54.17±26.41%
same,Inhibition %,Akt; 5.92 µg/mL,73.98±8.55%
same,Inhibition %,Akt; 11.83 µg/mL,82.60±2.88%
same,IC50 value (Akt inhibitory effects),Akt,2.95 ± 0.05 mg/L
same,IC50,[2],11.8 ± 2.25 mg/L
same,SI values,[2],>42.27
"Nn1c(CCc2cccnc2)nnc1SCC(=O)Nc1nc2ccc(Cl)cc2s1 [Compound 3d, 2-((4-Amino-5-(2-(pyridine-3-yl)ethyl)-4H-1,2,4-triazole-3-yl)thio)-N-(6-chlorobenzothiazole-2-yl)acetamide]",Early apoptotic cells %,A549 cells,1.8%
same,Late apoptotic cells %,A549 cells,6.3%
same,Necrosis %,A549 cells,4.8%
same,Viable cells%,A549 cells,87.2%
same,apoptotic activity,A549 cells,8.1%
same,apoptosis induction,A549 cells,induce apoptosis
same,IC50,[1],4.9 ± 0.36 mg/L
same,Inhibition %,Akt; 0.98 µg/mL,80.23±7.70%
same,Inhibition %,Akt; 1.95 µg/mL,76.94±10.75%
same,Inhibition %,Akt; 3.90 µg/mL,100.00%
same,IC50 value (Akt inhibitory effects),Akt,0.19 ± 0.05 mg/L
same,IC50,[2],0.34 ± 0.02 mg/L
same,SI values,[2],14.41
"Brc1ccc(C2=Nn3c(CCc4cccnc4)nnc3SC2)cc1 [Compound 2e, G-(4-Bromophenyl)-3-(2-(pyridine-3-yl)ethyl)-7H-[1,2,4]triazolo[3,4-b][1,3,4]thiadiazine]",IC50,[1],> 500 mg/L
same,IC50,[2],> 500 mg/L
same,cytotoxic effects on A549 cell line,[2],did not show cytotoxic effects
"Nn1c(CCc2cccnc2)nnc1SCC(=O)Nc1nc2ccc(Br)cc2s1 [Compound 3e, 2-((4-Amino-5-(2-(pyridine-3-yl)ethyl)-4H-1,2,4-triazole-3-yl)thio)-N-(6-bromobenzothiazole-2-yl)acetamide]",IC50,[1],> 500 mg/L
same,IC50,[2],362 ± 12.6 mg/L
same,SI values,[2],>1.38
"c1ccc(C2=Nn3c(CCc4cccnc4)nnc3SC2)cc1 [Compound 2a, 6-Phenyl-3-(2-(pyridine-3-yl)ethyl)-7H-[1,2,4]triazolo[3,4-b][1,3,4]thiadiazine]",Early apoptotic cells %,A549 cells,1.7%
same,Late apoptotic cells %,A549 cells,2.7%
same,Necrosis %,A549 cells,0.7%
same,Viable cells%,A549 cells,95.0%
same,IC50,[1],> 500 mg/L
same,Inhibition %,Akt; 1.81 µg/mL,8.75±2.77%
same,Inhibition %,Akt; 3.62 µg/mL,7.69±2.91%
same,Inhibition %,Akt; 7.23 µg/mL,35.45±5.82%
same,Akt inhibitory effects,Akt,did not show significant Akt inhibitory effects
same,IC50,[2],7.23 ± 1.62 mg/L
same,SI values,[2],>69.16
"O=[N+]([O-])c1ccc(C2=Nn3c(CCc4cccnc4)nnc3SC2)cc1 [Compound 2b, G-(4-Nitrophenyl)-3-(2-(pyridine-3-yl)ethyl)-7H-[1,2,4]triazolo[3,4-b] [1,3,4]thiadiazine]",Early apoptotic cells %,A549 cells,2.4%
same,Late apoptotic cells %,A549 cells,2.4%
same,Necrosis %,A549 cells,2.5%
same,Viable cells%,A549 cells,94.6%
same,IC50,[1],> 500 mg/L
same,Inhibition %,Akt; 4.07 µg/mL,34.75±2.25%
same,Inhibition %,Akt; 8.13 µg/mL,33.16±14.16%
same,Akt inhibitory effects,Akt,did not show significant Akt inhibitory effects
same,IC50,[2],8.13 ± 0.81 mg/L
same,SI values,[2],>61.50
"COc1ccc(C2=Nn3c(CCc4cccnc4)nnc3SC2)cc1 [Compound 2i, G-(4-Methoxyphenyl)-3-(2-(pyridine-3-yl)ethyl)-7H-[1,2,4]triazolo[3,4-b][1,3,4] thiadiazine]",IC50 values NIH/3T3 cell line,[1]; 24 hours,<3.90 mg/L
same,IC50,[1],< 3.9 mg/L
same,IC50,[2],13.7 ± 2.52 mg/L
"N#Cc1ccc(C2=Nn3c(CCc4cccnc4)nnc3SC2)cc1 [Compound 2f, G-(4-Cyanophenyl)-3-(2-(pyridine-3-yl)ethyl)-7H-[1,2,4]triazolo[3,4-b][1,3,4]thiadiazine]",IC50,[1],> 500 mg/L
same,IC50,[2],> 500 mg/L
same,cytotoxic effects on A549 cell line,[2],did not show cytotoxic effects
"CCn1c(-c2nonc2N)nc2c(C#CC(C)(C)O)ncc(OC[C@H]3CCCNC3)c21 [GSK690693, reference compound]",Inhibition %,Akt; 1.50 µg/mL,34.46±1.47%
same,Inhibition %,Akt; 3.075 µg/mL,49.88±5.55%
same,Inhibition %,Akt; 6.15 µg/mL,100%
same,IC50 value (Akt inhibitory effects),Akt,2.93 ± 0.23 mg/L
same,IC50,[2],6.15 ± 0.49 mg/L
